Measurements taken from US9394295B2, “Antibacterial homopiperidinyl substituted 3,4-dihydro-1H-[1,8]naphthyridinones” (Janssen Sciences Ireland UC, priority 2011, dated 2016).
Values after ≈ are worked out from the molar mass of the structure shown. Where two headings read alike, the source gives them in different places.

How the values were obtained:
[1] = target: T1, S. aureus ATCC 29213 FabI (Staphylococcus aureus, UniProt Q6GI75); test: Staphylococcus aureus FabI enzyme inhibition assay; format: biochemical; details: 30 minutes at room temperature, NADH consumption
T1 sequence (Q6GI75 1-256): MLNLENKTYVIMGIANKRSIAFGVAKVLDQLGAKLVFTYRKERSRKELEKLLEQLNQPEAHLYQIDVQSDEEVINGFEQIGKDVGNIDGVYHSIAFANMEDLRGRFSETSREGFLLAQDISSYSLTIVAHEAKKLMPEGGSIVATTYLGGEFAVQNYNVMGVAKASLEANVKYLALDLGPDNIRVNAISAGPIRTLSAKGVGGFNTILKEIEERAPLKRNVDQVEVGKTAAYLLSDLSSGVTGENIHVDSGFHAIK
Procedure: FabI enzyme inhibition assays were carried out in half-area, 384-well microtitre plates. Compounds were evaluated in 40-μl assay mixtures containing 100 mM NaADA, pH 6.5 (ADA=N-[2-acetamido]-2iminodiacetic acid), 250 μM crotonoyl-CoA, 625 μM NADH and 50 μg/ml S. aureus ATCC 29213 FabI Inhibitors were typically varied over the range of 50 to 0.39 μM. The reaction mixtures were incubated for 30 minutes at room temperature and the reaction was stopped by adding 200 mM Tris buffer (pH 9.0) to create a pH-shift. The consumption of NADH was monitored by measuring the change in absorbance at […]. By comparing sample readings to those of negative (absence of compound) and positive (absence of enzyme) controls, the percent inhibition of enzymatic activity of the compounds was determined. A best-fit curve is fitted by a minimum of squares method. From this an IC50-value (expressed in μg/ml), resulting in 50% inhibition of enzymatic activity, was obtained.

[2] = tested on: Staphylococcus aureus ATCC 29213; test: Antibacterial susceptibility testing: IC90 determination (STA); format: cell-based; details: ATCC29213, S. aureus ATCC 29213, 90% inhibitory concentration for bacterial growth, read-out: STA (361.159) IC90
Procedure: (§1) The following bacteria were used: Staphylococcus aureus ATCC 29213, methicillin-resistant Staphylococcus aureus (MRSA) ATCC 700788 and Escherichia coli ATCC 35218. The bacteria used in this study were grown overnight in flasks containing 100 ml Mueller-Hinton broth (Difco cat. nr. 0757-17) in sterile de-ionized water, with shaking, at 37° C. Stocks were store at −70° C. until use.
(§2) Bacteria were incubated on a tryptic soy agar plate containing 5% sheep blood (Becton Dickinson cat. nr. 254053) for 18-24 hours at 35° C. in aerobic conditions (first passage). For the second passage, fresh Mueller-Hinton broth is inoculated with 5-10 colonies and grown overnight at 35° C. until turbidity (reaching log-phase) in aerobic conditions is reached. The bacterial suspension is then adjusted to 0.5 McFarland density and further diluted 1:100 in Mueller Hinton broth medium. This is used as inoculum.
(§3) MIC assays were performed by the broth microdilution method in a 96-well format (flat-bottom microtitre plates) with a final volume of 0.1 ml Mueller Hinton broth containing two-fold serial dilutions of compounds and inoculated with 5×10^5 CFU/ml of bacteria (standard inoculum size according to CLSI guidelines). Inhibitors are typically varied over the range of 63 to 0.49 μM. The final DMSO concentration in the assay was 1.25% (maximum tolerable DMSO concentration=6%). In the assays where the effect of human serum on the activity of the compounds against S. aureus was tested, human serum was added at a final concentration of 10%. The plates were incubated at 35° C. for 16-20 hours. At the end of incubation the bacterial growth was quantified fluorometrically. For this, resazurin was added to all wells and the plates were re-incubated. The incubation time is dependent on the type of bacteria. A change in color from blue to pink indicated the growth of bacteria. The fluorescence was read in computer-controlled fluorometer (Fluoroskan Ascent FL, Labsystems) at an excitation wavelength 540 nm and an emission wavelength of 590 nm. The % growth inhibition achieved by the compounds was calculated according to standard methods. The IC90 (expressed in μg/ml) was defined as the 90% inhibitory concentration for bacterial growth. A panel of reference compounds were simultaneously tested for QC approval.

S. aureus = test: Antibacterial susceptibility testing: IC90 determination with 10% human serum (STA + 10% HS); format: cell-based; details: Staphylococcus aureus; S. aureus with human serum at final concentration of 10%; read-out: STA + 10% HS (361.169) IC90
Procedure: as §1, §2, §3
The results are depicted in the table D2 below (STA+10% HS).

[3] = Cytotoxicity MTT assay (TOX HELAM); format: cell-based; details: human, HelaM cells, read-out: TOX HELAM (222.125) CC50
Procedure: Cytotoxicity of the compounds was evaluated using the MTT assay. Human HelaM cells grown in 96-well plates were exposed to serial dilutions of the tested compounds (final volume of 0.2 ml) and incubated for 72 hours at 37° C. and 5% CO2. Inhibitors are typically varied over the range of 25 to 0.8 μM. The final DMSO concentration in the assay is 0.5%. MTT (3-(4,5-Dimethylthiazol-2-yl)-2,5-diphenyltetrazolium bromide, a tetrazole) was added and reduced to purple formazan only in living cells. Solubilization of the formazan crystals was achieved by adding 100 μl 2-propanol. Cell viability was determined by measuring the absorbance of the reduced formazan, giving a purple color, at 540 nm and 690 nm. The absorbance measured at 690 nm was automatically subtracted from the absorbance at 540 nm, to eliminate the effects of non-specific absorption. The percent cytotoxicity achieved by the compounds was calculated according to standard methods. Cytotoxicity is reported as CC50, the concentration that causes a 50% reduction in cell viability.
The results are depicted in the table D2 below (TOX HELAM).

[4] = In vivo pharmacokinetic and oral bioavailability; details: male Swiss mice; for half-life: read-out: Half life (t1/2) (converted)
Procedure: The in vivo pharmacokinetics and oral bioavailability of the compound of the examples was/is investigated in male Swiss mice (fed) following single intravenous (i.v.) bolus and oral (p.o.) administration. For the i.v. and p.o. solution formulations, the compound was/is dissolved in a 20% HP-β-CD solution. The pH of the formulations was/is around pH 4. All i.v. formulations were isotonic.

S. aureus ATCC 29213 = test: MIC broth microdilution (CLSI), S. aureus ATCC 29213; format: cell-based; details: Staphylococcus aureus, ATCC 29213 / MSSA, reference strain MSSA
Procedure: (§4) Minimum Inhibitory Concentrations (MICs) were determined in accordance with the Clinical and Laboratory Standards Institute (CLSI) methodology against aerobic bacteria (CLSI M07-A8) (see Clinical and Laboratory Standards Institute. 2009. Methods for dilution antimicrobial susceptibility tests for bacteria that grow aerobically. CLSI document M07-A8, Vol. 29, No. 2.) by the broth microdilution method with cation-adjusted Mueller-Hinton broth (CA-MHB) medium for the majority of organisms, except for Haemophilus influenza, where Haemophilis test medium (HTM) broth was used. Descriptions of the individual organisms can be found in the table. Where possible, ATCC standard strains were tested.
(§5) The inoculum density for the susceptibility testing was standardized to give a final inoculum of approximately 5×10^5 CFU/mL.
(§6) Stock solutions of the compounds were prepared in DMSO at concentrations of 1 mg/mL. Linezolid was prepared in DMSO at a concentration of 2 mg/mL. Stock solutions of all compounds were diluted into CA-MHB to give a range of two-fold dilutions, depending upon the sensitivity of the organism being tested.

S. aureus ATCC 43300 = test: MIC broth microdilution (CLSI), S. aureus ATCC 43300; format: cell-based; details: Staphylococcus aureus, ATCC 43300 / MRSA, reference strain MRSA
Procedure: as §4, §5, §6

E. coli tolC mutant = test: MIC broth microdilution (CLSI), E. coli tolC mutant; format: cell-based; details: Escherichia coli
Procedure: as §4, §5, §6

E. coli ATCC 25922 = test: MIC broth microdilution (CLSI), E. coli ATCC 25922; format: cell-based; details: Escherichia coli, ATCC25922
Procedure: as §4, §5, §6

H. influenza ATCC 49247 = test: MIC broth microdilution (CLSI), H. influenza ATCC 49247; format: cell-based; details: Haemophilus influenzae, ATCC49247, HTM broth
Procedure: as §4, §5, §6

[5] = mouse, plasma, iv, i.v. 2.5 mg/kg
[6] = mouse, plasma, po, p.o. 10 mg/kg

| SMILES | IC50 [1] | IC90 [2] | IC90 (S. aureus) | CC50 at 72 h [3] | melting point | Vdz ([4]; i.v. 2.5 mg/kg) | AUC(0-inf) [4, 5] | C0 ([4]; mouse, plasma, iv, i.v. 2.5 mg/kg, 20% HP-β-CD solution) | half-life [4, 5] | clearance ([4]; mouse, plasma, iv, i.v. 2.5 mg/kg, read-out: Plasma clearance Cl (converted)) | bioavailability ([4]; mouse, plasma, po, p.o. 10 mg/kg vs i.v. 2.5 mg/kg) | AUC(0-inf) [4, 6] | Tmax [4, 6] | Cmax ([4]; mouse, plasma, po, p.o. 10 mg/kg, 20% HP-β-CD solution) | half-life [4, 6] | MIC90 (S. aureus ATCC 29213) | MIC90 (S. aureus ATCC 43300) | MIC90 (E. coli tolC mutant) | MIC90 (E. coli ATCC 25922) | MIC90 (H. influenza ATCC 49247) |
| --- | --- | --- | --- | --- | --- | --- | --- | --- | --- | --- | --- | --- | --- | --- | --- | --- | --- | --- | --- | --- |
| O=C1CCc2cc(/C=C/C(=O)N3CCCN(c4ccccc4)CC3)cnc2N1 [Co. No. 11] | 1040 nM | 3.24 µg/mL (≈ 8.61 µM) | 5.76 µg/mL | > 9.46 µg/mL | 156 °C | – | – | – | – | – | – | – | – | – | – | – | – | – | – | – |
| Cc1ccc(F)cc1C1=CCN(C(=O)/C=C/c2cnc3c(c2)CCC(=O)N3)CCC1 [Co. No. 14] | 863 nM | 1.54 µg/mL (≈ 3.8 µM) | 3.74 µg/mL | 9.73 µg/mL (≈ 24 µM) | – | 1.0 L/kg | 6700 ng·h/mL | 4550 ng/mL | 2 h | 6 mL/min/kg | 90% | 23800 ng·h/mL | 1 h | 3930 ng/mL | 2.8 h | – | – | – | – | – |
| O=C1CCc2cc(/C=C/C(=O)N3CCC=C(c4cccc(Cl)c4)CC3)cnc2N1 [Co. No. 19] | 1050 nM | 0.35 µg/mL (≈ 0.858 µM) | 1.38 µg/mL | > 20.4 µg/mL | – | – | – | – | – | – | – | – | – | – | – | 0.125 µg/mL (≈ 0.306 µM) | 0.25 µg/mL (≈ 0.613 µM) | 1 µg/mL (≈ 2.45 µM) | > 8 µg/mL | > 8 µg/mL |
